Laboratory results: patent publication US7875624B2, “Modulating and measuring cellular adhesion” (Novartis Vaccines and Diagnostics, Inc., priority 2004, dated 2011)
“Also recorded” adds a separate entry of the source.

Legend:
[1] = tested on: 4T1 breast tumor cells; experiment: 4T1 spontaneously metastatic mouse breast tumor model: subcutaneous tumor growth, liver and lung metastases; format: in vivo
[2] = tested on: MMP-9; experiment: Zymography for MMP-9 activity in KM12L4a human colon xenografts; format: in vivo, mouse; settings: 100 mg/kg for 7 days; KM12L4a tumors in Nu/nu mice; listed as 4-amino-5-fluoro-3-[6-(4-methylpiperazin-1-yl)-1H-benzimidazol-2-yl]quinolin-2(1)
Experimental: Female Nu/nu mice (6-8 weeks old, 18-22 grams) were obtained from Charles River Laboratories (Wilmington, Mass.). Tumor cells (2×10^6 KM12L4a) were implanted subcutaneous into the flank of mice and allowed to grow to the desired size before treatment was initiated. […] The tumors were resected and flash frozen in liquid nitrogen.
After electrophoresis, gels were washed twice for 15 minutes in 2.5% Triton X-100, incubated overnight at 37° C. in 50 mM Tris-HCl and 10 mM CaCl2, pH 7.6, and stained with 0.5% Comassie Blue and destained with 50% methanol.

[3] = tested on: VEGF-A; experiment: VEGF-A ELISA in KM12L4a tumor lysates; format: in vivo, mouse; settings: 100 mg/kg for 7 days; KM12L4a tumors in Nu/nu mice; listed as 4-amino-5-fluoro-3-[6-(4-methylpiperazin-1-yl)-1H-benzimidazol-2-yl]quinolin-2(1)
Text: […]. Tumor cells (2×10^6 KM12L4a) were implanted subcutaneous into the flank of mice and allowed to grow to the desired size before treatment was initiated. […] The tumors were resected and flash frozen in liquid nitrogen.
VEGF-A protein levels in KM12L4a tumor lysates were quantified using a commercially available ELISA kit (R and D Systems, Minneapolis, Minn.) according to the manufacturer's procedures.

[4] = tested on: KM12L4a human colon tumors; experiment: Antibody immunohistochemistry staining of KM12L4a human colon tumors (Ki67, PARP, caspase-3, CD31); format: in vivo, mouse; settings: 100 mg/kg for 7 days
[5] = tested on: ICAM; experiment: Western blot analysis of HUVECs, ICAM; settings: 100 nM, lysates at 0, 16 and 24 hours
[6] = tested on: VCAM; experiment: Western blot analysis of HUVECs, VCAM; settings: 100 nM, lysates at 0, 16 and 24 hours
[7] = tested on: α5 integrin; experiment: Western blot analysis of HUVECs, α5 integrin; settings: 100 nM, lysates at 0, 16 and 24 hours
[8] = tested on: αv integrin; experiment: Western blot analysis of HUVECs, αv integrin; settings: 100 nM; lysates at 0, 16 and 24 hours
[9] = tested on: soluble ICAM; experiment: Soluble ICAM ELISA in serum of 4T1 tumor bearing mice; settings: 4T1 breast tumors
[10] = tested on: soluble VCAM; experiment: Soluble VCAM ELISA in serum of 4T1 tumor bearing mice; settings: 4T1 breast tumors
[11] = 10 mpk orally, daily for 18 days
[12] = 30 mpk orally, daily for 18 days
[13] = 60 mpk orally, daily for 18 days
[14] = 100 mpk orally, daily for 18 days
[15] = 150 mpk orally, daily for 18 days
[16] = orally, daily, after 18 days of dosing, BALB/C mice
[17] = listed as 4-amino-5-fluoro-3-[6-(4-methylpiperazin-1-yl)-1H-benzimidazol-2-yl]quinolin-2(1)
[18] = 100 or 150 mg/kg orally, daily for 18 days
[19] = varying amounts (10-150 mg/kg), 18 days

CN1CCN(c2ccc3nc(-c4c(N)c5c(F)cccc5[nH]c4=O)[nH]c3c2)CC1 [Compound 1]
growth of the subcutaneous tumor inhibited compared to control ([1]; 10-150 mg/kg orally, daily for 18 days, BALB/C mice): 40-80%
# of Liver Metastases Mean +/− SD [1, 11]: 22.0 +/− 32.3
Liver Metastases: Incidence of Metastases [1, 11]: 7/8
# of Liver Metastases Mean +/− SD [1, 12]: 3.1 +/− 3.5
Liver Metastases: Incidence of Metastases [1, 12]: 6/10
# of Liver Metastases Mean +/− SD [1, 13]: 0.7 +/− 0.9
Liver Metastases: Incidence of Metastases [1, 13]: 5/10
# of Liver Metastases Mean +/− SD [1, 14]: 4.1 +/− 13.0
Liver Metastases: Incidence of Metastases [1, 14]: 1/10
# of Liver Metastases Mean +/− SD [1, 15]: 0.0 +/− 0.0
Liver Metastases: Incidence of Metastases [1, 15]: 0/9
liver metastases inhibition [1, 16]: completely inhibited
lung metastases inhibited [1, 16]: 60-97%
MMP-9 activity in tumors (zymography) [2]: decreased MMP-9 activity; also recorded: decrease
VEGF production in tumors (ELISA) [3]: reduced VEGF production; also recorded: decrease
apoptosis (PARP cleavage and caspase-3) [4]: induced apoptosis
tumor cell proliferation (Ki67) [4]: decreased tumor cell proliferation
vascular density (CD31) [4]: reduced vascular density
expression of ICAM in HUVECs [5]: decreased
expression of ICAM in HUVECs [5, 17]: decrease
expression of VCAM in HUVECs [6]: decreased
expression of VCAM in HUVECs [6, 17]: decrease
expression of α5 integrin in HUVECs [7]: decreased
expression of α5 integrin in HUVECs [7, 17]: decrease
expression of αv integrin in HUVECs [8]: not αν integrin
inhibition of soluble ICAM in serum [9, 18]: greater than 70%
soluble ICAM in serum, effect in words [9, 19]: dose-dependent reduction
inhibition of soluble VCAM in serum [10, 18]: 44-47%
soluble VCAM in serum, effect in words [10, 19]: dose-dependent reduction
